# Values quoted from earlier work, collected in US20120208745A1, “TREATMENT OF HIV” (priority 2006, published 2012).
# Where two headings read alike, the source gives them in different places.
# Key:
# IL-1 = conditions: whole blood of HIV patients stimulated with LPS; concentration-dependent
# TNF-α [1] = conditions: whole blood of HIV patients stimulated with LPS; concentration-dependent
# TNF-α [2] = conditions: normal PBMC, induced by HIV envelope glycoprotein gp 120
# IL-1β = conditions: normal PBMC, induced by HIV envelope glycoprotein gp 120
Substance,production of IL-1 (IL-1),production of TNF-α (TNF-α [1]),production of TNF-α (TNF-α [2]),production of IL-1β (IL-1β)
"ACTH (1-24): Melanocortin peptide, fragment 1-24 of adrenocorticotropic hormone (SYSMEHFRWGKPVGKKRRPVKVYP; Corticotropin; UniProt P01189 138-161, looked up, fragment)",reduced,reduced,,
"adrenocorticotropic hormone [ACTH (1-39)] (SYSMEHFRWGKPVGKKRRPVKVYPNGAEDESAEAFPLEF; Corticotropin; UniProt P01189 138-176, looked up) [Proopiomelanocortin-derived melanocortin peptide]",reduced,reduced,,
"α-melanocyte-stimulating hormone [α-MSH (1-13), α-melanocyte-stimulating hormone [α-MSH (1-13)]]",reduced,reduced,inhibit,inhibit
